Among the test systems are HCT-15 colon; T-47D breast; NCI-H226 lung; SF-268 CNS; NCI-H522 lung; SN12C renal; HT29 colon; U251 CNS; SK-MEL-28 melanoma; HOP-92 NSCLC; RXF 393 renal.
What all share (test): NCI anticancer screen, dose series, 48 h

Consider 13 compounds from PubChem BioAssay (NCI).

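Values below derive from 48-hour exposures of cells grown in 96-well plates, with endpoints linearly interpolated between the two concentrations bracketing the appropriate inhibition level. TGI: total growth inhibition.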 Bounds are passed on as bounds.

Turning to `CC(=O)c1cc2c(s1)C(=O)c1scc(C(C)=O)c1C2=O`, the TGI with HCT-15 colon was 1.07 µM; in the assay with T-47D breast it was 0.838 µM; in the assay with NCI-H226 lung, 3.57 µM; in the assay on SF-268 CNS, 1.5 µM; in the assay with NCI-H522 lung it was 1.28 µM; in the assay on SN12C renal it was 0.426 µM. Besides, the TGI was 4.2 µM with HT29 colon; 0.628 µM with U251 CNS; 1.59 µM with SK-MEL-28 melanoma; 0.93 µM with HOP-92 NSCLC; 1.54 µM in the assay on RXF 393 renal.

Turning to `N#Cc1ccc(/C=N/NC(=O)CSCC(=O)N/N=C/c2ccc(C#N)cc2)cc1`, the TGI in the assay on HCT-15 colon, with T-47D breast, in the assay with NCI-H226 lung, with SF-268 CNS, with NCI-H522 lung and in the assay with SN12C renal was more than 100 µM each time. Besides, the TGI in the assay with HT29 colon, in the assay on U251 CNS, in the assay on SK-MEL-28 melanoma, with HOP-92 NSCLC and in the assay on RXF 393 renal was more than 100 µM throughout.

`O=c1c2ncn(C3CCCCO3)c2n(-c2ccccc2)c(=S)n1-c1ccccc1` (stereo not given): the TGI in the assay with HCT-15 colon was more than 100 µM; with T-47D breast, more than 77.3 µM; in the assay on NCI-H226 lung, 86.2 µM; with SF-268 CNS, more than 92.2 µM; in the assay with NCI-H522 lung, more than 86.7 µM; in the assay on SN12C renal, more than 100 µM. Also, the TGI in the assay on HT29 colon was more than 100 µM; in the assay with U251 CNS, more than 74.2 µM; with SK-MEL-28 melanoma, more than 100 µM; in the assay on HOP-92 NSCLC it was 31 µM; in the assay with RXF 393 renal, 25.4 µM.

`CC(=O)[C@H]1CC[C@H]2[C@@H]3CCC4=CC(=O)CC[C@]4(C)[C@H]3CC[C@]12C`: the TGI in the assay with HCT-15 colon was found to be 69.3 µM; with T-47D breast it was 57.8 µM; in the assay on NCI-H226 lung it was 45 µM; in the assay on SF-268 CNS, 69.8 µM; in the assay on NCI-H522 lung, 31 µM; in the assay on SN12C renal, 41.1 µM. The TGI in the assay with HT29 colon is 29.7 µM; with U251 CNS it was 34.1 µM; with SK-MEL-28 melanoma it was 37.7 µM; in the assay on HOP-92 NSCLC, 71.3 µM; with RXF 393 renal it was 57.9 µM.

On to `Cc1ccc2ccc(=O)oc2c1`, for which the TGI with T-47D breast, in the assay on NCI-H226 lung, with SF-268 CNS, in the assay with NCI-H522 lung, with SN12C renal and in the assay on HT29 colon was more than 100 µM each time. In addition, the TGI in the assay on U251 CNS, with SK-MEL-28 melanoma, in the assay on HOP-92 NSCLC and in the assay on RXF 393 renal was more than 100 µM each time.

On to `OC12C3C4CC5C(C4[C@@H]1Br)C2[C@@](O)(c1c(F)c(F)c(F)c(F)c1F)C53` (stereo not given in full), for which the TGI with HCT-15 colon, with T-47D breast, in the assay on SF-268 CNS, in the assay with NCI-H522 lung, in the assay with SN12C renal and with HT29 colon was more than 100 µM each time. For the same compound, the TGI in the assay with U251 CNS is more than 100 µM; in the assay with SK-MEL-28 melanoma, more than 100 µM; in the assay on HOP-92 NSCLC, 68.7 µM; in the assay on RXF 393 renal, 94.3 µM.

For `COc1ccc(OC)c(C(=O)/C=C/c2cc(O)c(O)cc2F)c1`, the TGI was 13.5 µM with HCT-15 colon; more than 100 µM with T-47D breast; 15.4 µM with NCI-H226 lung; more than 44.9 µM in the assay on SF-268 CNS; 0.948 µM with NCI-H522 lung; 5.8 µM with SN12C renal. The TGI in the assay with HT29 colon is 29.3 µM; in the assay on U251 CNS, 12.3 µM; with SK-MEL-28 melanoma it was 35.8 µM; in the assay with HOP-92 NSCLC, more than 67 µM; in the assay with RXF 393 renal, 23.5 µM.

Turning to `O=S(=O)(O)c1ccc2c(N=Nc3ccccc3)c(O)c(S(=O)(=O)O)cc2c1`, the TGI with HCT-15 colon, with T-47D breast, in the assay on NCI-H226 lung, in the assay with SF-268 CNS, in the assay on NCI-H522 lung and in the assay on SN12C renal was more than 100 µM in each case. For the same compound, the TGI in the assay on U251 CNS, in the assay on SK-MEL-28 melanoma, in the assay with HOP-92 NSCLC and in the assay on RXF 393 renal was more than 100 µM throughout.

Turning to `O=C(O)CCC(C(=O)O)N1C(=O)c2ccccc2C1=O` (stereo not given), the TGI in the assay with HCT-15 colon, in the assay on T-47D breast, in the assay with NCI-H226 lung, in the assay with SF-268 CNS, in the assay with NCI-H522 lung and in the assay with SN12C renal was more than 100 µM each time. Moreover, the TGI in the assay with HT29 colon, with U251 CNS, in the assay with SK-MEL-28 melanoma, in the assay with HOP-92 NSCLC and in the assay with RXF 393 renal was more than 100 µM each time.

Take `COc1ccc(C2c3cc4c(cc3OC(NNC(N)=O)C2C)OCO4)cc1` (stereo not given): the TGI is 36.3 µM in the assay on HCT-15 colon; more than 100 µM with T-47D breast; more than 76.2 µM in the assay with NCI-H226 lung; more than 100 µM with SF-268 CNS; 18.3 µM in the assay on NCI-H522 lung; more than 100 µM in the assay with SN12C renal. The TGI with HT29 colon was 17.2 µM; in the assay on U251 CNS it was 35.2 µM; with SK-MEL-28 melanoma it was more than 100 µM; in the assay with HOP-92 NSCLC it was 78.7 µM; in the assay on RXF 393 renal, 54.5 µM.

Take `COC(=O)C1=C(O)C(C(=O)OC)[C@]2(O)[C@H](C(=O)OC)[C@H]1C[C@@H](c1cccc(OC)c1)[C@H]2C(=O)OC` (stereo not given in full): the TGI with HCT-15 colon was 86.3 µM; in the assay with T-47D breast, more than 100 µM; with NCI-H226 lung, more than 100 µM; in the assay with SF-268 CNS, more than 100 µM; with NCI-H522 lung, 33.3 µM; in the assay with SN12C renal, 65.7 µM. Further, the TGI with HT29 colon was more than 100 µM; in the assay on U251 CNS, 68.7 µM; in the assay on SK-MEL-28 melanoma it was more than 100 µM; with HOP-92 NSCLC, more than 100 µM; with RXF 393 renal it was 43.1 µM.

Take `CC(=O)OC(CC(C)C)P1(=O)N(CC(C)(C)C)[C@@H]2CCCC[C@H]2N1CC(C)(C)C` (stereo not given in full): the TGI in the assay on HCT-15 colon was 23.4 µM; with T-47D breast it was 19.7 µM; in the assay with NCI-H226 lung, 23.2 µM; with SF-268 CNS, 29.3 µM; in the assay with NCI-H522 lung, 19.2 µM; in the assay on SN12C renal, 24.4 µM. Also, the TGI worked out at 19 µM with HT29 colon; 20.1 µM with U251 CNS; 28.6 µM in the assay with SK-MEL-28 melanoma; 10.7 µM with HOP-92 NSCLC; 18.1 µM in the assay on RXF 393 renal.

As for `O=C(CCCC1Cc2ccccc2C1=O)c1ccccc1` (stereo not given), the TGI in the assay with HCT-15 colon, in the assay with T-47D breast, with NCI-H226 lung, with SF-268 CNS, with NCI-H522 lung and in the assay with SN12C renal was more than 100 µM each time. Further, the TGI in the assay with HT29 colon, in the assay on U251 CNS, in the assay on SK-MEL-28 melanoma, in the assay on HOP-92 NSCLC and in the assay with RXF 393 renal was more than 100 µM each time.
